Source: patent EP0069521A2, “Pyridinyl and imidazolyl derivatives of benzofurans and benzothiophenes” (THE UPJOHN COMPANY, priority 1981, dated 1983)

Target: T1, TXA2 synthetase (Homo sapiens, UniProt P24557)
T1 construct: generated by mixing prostaglandin H2 (PGHz) with human platelet microsomes (HPM); from tissue; host or cells: human platelet microsomes
T1 sequence (P24557 1-533): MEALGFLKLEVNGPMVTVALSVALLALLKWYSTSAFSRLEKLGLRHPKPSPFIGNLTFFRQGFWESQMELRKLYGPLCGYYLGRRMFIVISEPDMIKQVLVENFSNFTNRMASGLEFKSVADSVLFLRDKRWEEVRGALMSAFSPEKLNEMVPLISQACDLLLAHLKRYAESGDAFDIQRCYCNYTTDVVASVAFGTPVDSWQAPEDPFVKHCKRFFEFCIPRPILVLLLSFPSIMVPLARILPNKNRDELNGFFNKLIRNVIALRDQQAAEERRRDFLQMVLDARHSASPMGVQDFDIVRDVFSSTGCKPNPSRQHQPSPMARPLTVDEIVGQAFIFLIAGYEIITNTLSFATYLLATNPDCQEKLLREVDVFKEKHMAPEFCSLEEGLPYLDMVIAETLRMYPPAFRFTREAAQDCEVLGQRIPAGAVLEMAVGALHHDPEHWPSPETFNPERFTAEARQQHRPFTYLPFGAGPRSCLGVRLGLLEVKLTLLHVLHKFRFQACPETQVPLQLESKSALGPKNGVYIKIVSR
Experiment: TXA2 inhibition test: TXA2 generated by mixing PGH2 with human platelet microsomes, response of superfused rabbit aortic strips
Assay type: biochemical
Details: inhibiting TXA2 formation; test compound added to human platelet microsomes 5 minutes before mixing with PGH2; rabbit aorta response
Experimental: The compounds of the present invention were tested for TXA2 inhibition as follows: • Rabbit aortic strips were superfused in series with Krebs solution. Thromboxane Az (TXA2) was generated by mixing prostaglandin H2 (PGHz) with human platelet microsomes (HPM).
Potential inhibitors were tested by comparing the response of the rabbit aorta to the amount of TXA2 produced by mixing PGH2 and HPM without the test compound in the reaction medium and then the amount of TXA2 produced when the test compound was added to the HPM 5 minutes before the HPM was mixed with PGH2. […] For a discussion of TXA2 synthetase inhibition testing see, e.g., R. Gorman, supra.

## O=C([O-])c1cc2cc(Cc3cccnc3)ccc2o1.[Na+] [Example A-2, Sodium 5-(3'-pyridinylmethyl)benzofuran-2-carboxylate]
  approximate ED50: ~0.01 µg/mL
